{
  "source": "patent US20120003661A1",
  "about": "“METHODS AND DEVICES FOR THE SELECTIVE DETECTION OF MICROORGANISMS” (C3 JIAN, INC., priority 2010, published 2012)",
  "key": {"[1]": {"tested_on": "S. pneumoniae", "experiment": "MIC of antimicrobial peptides (Table 4)", "format": "cell-based, Streptococcus pneumoniae"}, "[2]": {"tested_on": "B. subtilis", "experiment": "MIC of antimicrobial peptides (Table 4)", "format": "cell-based, Bacillus subtilis", "settings": "B. subtilis"}, "[3]": {"tested_on": "S. mutans", "experiment": "MIC of antimicrobial peptides (Table 4)", "format": "cell-based, Streptococcus mutans"}, "[4]": {"tested_on": "A. niger", "experiment": "MIC of antimicrobial peptides (Table 4)", "format": "cell-based, Aspergillus niger"}, "[5]": {"tested_on": "bacteria, fungi, and/or yeasts", "format": "binding"}, "[6]": {"settings": "microorganism(s) listed as target(s) of the targeting peptide, wrapped target lists given cell by cell"}, "[7]": {"settings": "microorganism(s) the targeting peptide binds, as listed in Table 2"}, "[8]": {"settings": "microorganism(s) that the targeting peptide binds, as listed in Table 2"}},
  "note": "“Also recorded” adds a separate entry of the source. Like-named read-outs stand apart in the source and are kept apart here. Ends that are not written are not given here.",
  "data": [
    {"substance": "PDAPRTCYHKPILAALSRIVVTDR [PF-524]", "values": [
      {"measurement": "Organism MIC", "setting": "[1]", "value": "S. pneumoniae, 50 μM"}
    ]},
    {"substance": "VYSFLYVLVIVRKLLSMKKRIERL [PF-499]", "values": [
      {"measurement": "Organism MIC", "setting": "[2]", "value": "B. subtilis, 50 μM"}
    ]},
    {"substance": "CGKLLEQKNFFLKTR [PF-521]", "values": [
      {"measurement": "Organism MIC", "setting": "[1]", "value": "S. pneumoniae, 50 μM"}
    ]},
    {"substance": "KILKFLFKQVF [K-11]", "values": [
      {"measurement": "Organism MIC", "setting": "[3]", "value": "S. mutans, 4 μM"}
    ]},
    {"substance": "LRKNLRWLF [K-15]", "values": [
      {"measurement": "Organism MIC", "setting": "[3]", "value": "S. mutans, 4 μM"}
    ]},
    {"substance": "LRKFLHKLF [K-14]", "values": [
      {"measurement": "Organism MIC", "setting": "[3]", "value": "S. mutans, 8 μM"}
    ]},
    {"substance": "ASKQASKQASKQASKQASKQASRSLKNHLL [PF-523]", "values": [
      {"measurement": "Organism MIC", "setting": "[1]", "value": "S. pneumoniae, 50 μM"}
    ]},
    {"substance": "GLGRVIGRLIKQIIWRR [K-1]", "values": [
      {"measurement": "Organism MIC", "setting": "[3]", "value": "S. mutans, 25 μM"}
    ]},
    {"substance": "LGLTAGVAYAAQPTNQPTNQPTNQPTNQPTNQPTNQPRW-NH2 [PF-520]", "values": [
      {"measurement": "Organism MIC", "setting": "[1]", "value": "S. pneumoniae, 50 μM"}
    ]},
    {"substance": "KILKFLFKKVF [K-8]", "values": [
      {"measurement": "Organism MIC", "setting": "[3]", "value": "S. mutans, 4 μM"}
    ]},
    {"substance": "FLKFLKKFFKKLKY [K-20]", "values": [
      {"measurement": "Organism MIC", "setting": "[3]", "value": "S. mutans, 8 μM"}
    ]},
    {"substance": "LSEMERRRLRKRA-NH2 [PF-529]", "values": [
      {"measurement": "Organism MIC", "setting": "[1]", "value": "S. pneumoniae, 50 μM"},
      {"measurement": "Organism MIC", "setting": "[4]", "value": "A. niger, 50 μM"}
    ]},
    {"substance": "VYRKRKSILKIYAKLKGWH [K-2]", "values": [
      {"measurement": "Organism MIC", "setting": "[3]", "value": "S. mutans, 12.5 μM"}
    ]},
    {"substance": "FQKPFTGEEVEDFQDDDEIPTII [PF-437]", "values": [
      {"measurement": "Organism MIC", "setting": "[1]", "value": "S. pneumoniae, 50 μM"}
    ]},
    {"substance": "GWLKMFKKIIGKFGKF [K-21]", "values": [
      {"measurement": "Organism MIC", "setting": "[3]", "value": "S. mutans, 8 μM"}
    ]},
    {"substance": "FIRKFLKKWLL [K-9]", "values": [
      {"measurement": "Organism MIC", "setting": "[3]", "value": "S. mutans, 4 μM"}
    ]},
    {"substance": "KKFKKFKVLKIL [K-18]", "values": [
      {"measurement": "Organism MIC", "setting": "[3]", "value": "S. mutans, 16 μM"}
    ]},
    {"substance": "VMQSLYVKPPLILVTKLAQQN [PF-511]", "values": [
      {"measurement": "Organism MIC", "setting": "[1]", "value": "S. pneumoniae, 50 μM"}
    ]},
    {"substance": "FTRKFLKFLHL [K-17]", "values": [
      {"measurement": "Organism MIC", "setting": "[3]", "value": "S. mutans, 8 μM"}
    ]},
    {"substance": "GIVLIGLKLIPLLANVLR [PF-322]", "values": [
      {"measurement": "Organism MIC", "setting": "[2]", "value": "B. subtilis, 50 μM"}
    ]},
    {"substance": "SLQSQLGPCLHDQRH [PF-448]", "values": [
      {"measurement": "Organism MIC", "setting": "[1]", "value": "S. pneumoniae, 50 μM"},
      {"measurement": "Organism MIC", "setting": "[4]", "value": "A. niger, 25 μM"}
    ]},
    {"substance": "LLKLLKLKKLKF [K-19]", "values": [
      {"measurement": "Organism MIC", "setting": "[3]", "value": "S. mutans, 16 μM"}
    ]},
    {"substance": "GIFKKFVKILYKVQKL [K-22]", "values": [
      {"measurement": "Organism MIC", "setting": "[3]", "value": "S. mutans, 8 μM"}
    ]},
    {"substance": "RRGCTERLRRMARRNAWDLYAEHFY [PF-148]", "values": [
      {"measurement": "Organism MIC", "setting": "[2]", "value": "B. subtilis, 50 μM"},
      {"measurement": "Target(s)", "setting": "[5]; [6]", "value": "S. epidermidis, M. luteus, P. mirabilis,; also recorded: E. coli, P. aeruginosa,; also recorded: C. albicans, MRSA, S. pneumoniae,; also recorded: E. faecalis, C. jeikeium,; also recorded: C. jejuni, M. smegmatis"},
      {"measurement": "Organism MIC", "setting": "[4]", "value": "A. niger, 50 μM"}
    ]},
    {"substance": "LVLRICTDLFTFIKWTIKQRKS [PF-497]", "values": [
      {"measurement": "Organism MIC", "setting": "[2]", "value": "B. subtilis, 50 μM"}
    ]},
    {"substance": "KILKKLFKFVF [K-12]", "values": [
      {"measurement": "Organism MIC", "setting": "[3]", "value": "S. mutans, 8 μM"}
    ]},
    {"substance": "NYRLVNAIFSKIFKKKFIKF [K-7]", "values": [
      {"measurement": "Organism MIC", "setting": "[3]", "value": "S. mutans, 12.5 μM"}
    ]},
    {"substance": "KLFKFLRKHLL [K-10]", "values": [
      {"measurement": "Organism MIC", "setting": "[3]", "value": "S. mutans, 4 μM"}
    ]},
    {"substance": "GILKKLFTKVF [K-13]", "values": [
      {"measurement": "Organism MIC", "setting": "[3]", "value": "S. mutans, 16 μM"}
    ]},
    {"substance": "1T-289 (EPSADIYLSAKDTKT)", "values": [
      {"measurement": "Target(s)", "setting": "[5]; [6]", "value": "F. nucleatum, P. gingivalis, S. gordonii,; also recorded: S. mitis, S. mutans, S. oralis,; also recorded: S. sanguinis"}
    ]},
    {"substance": "1T-190 (IQIIVNAFVEKDKTGAVIEVLYASNNHEKVKAKYEELVAIS)", "values": [
      {"measurement": "Target(s)", "setting": "[5]; [7]", "value": "A. naeslundii, F. nucleatum, P. gingivalis,; also recorded: S. epidermidis, S. gordonii,; also recorded: S. mitis, S. mutans, S. oralis,; also recorded: S. salivarious, S. sanguinis"}
    ]},
    {"substance": "PF-C291 (HPFLTGTGCPLFLIFRLFFVKAYFSFTVF)", "values": [
      {"measurement": "Target(s)", "setting": "[5]; [8]", "value": "A. naeslundii, F. nucleatum, P. gingivalis,; also recorded: S. mutans"}
    ]},
    {"substance": "1T-40 (QRVSLWSEVEHEFR)", "values": [
      {"measurement": "Target(s)", "setting": "[5]; [7]", "value": "S. mutans, P. aeruginosa"}
    ]},
    {"substance": "1T-253 (KTKESLTQQEKKFLKDYDRKSLHHFRDILTYCFILDKLTNK)", "values": [
      {"measurement": "Target(s)", "setting": "[5]; [6]", "value": "A. naeslundii, F. nucleatum, P. gingivalis,; also recorded: S. epidermidis, S. gordonii,; also recorded: S. mitis, S. mutans, S. oralis,; also recorded: S. salivarious, S. sanguinis"}
    ]},
    {"substance": "PF-025 (LLIIFRLWLELKWKNKK)", "values": [
      {"measurement": "Target(s)", "setting": "[5]; [6]", "value": "S. epidermidis, M. luteus, P. mirabilis,; also recorded: E. coli, P. aeruginosa,; also recorded: MRSA, E. faecalis, C. jejuni"}
    ]},
    {"substance": "PF-S026 (TELKYNGEEYLLLTQRDILAVIEK)", "values": [
      {"measurement": "Target(s)", "setting": "[5]; [8]", "value": "S. epidermidis, MRSA, C. jeikeium"}
    ]},
    {"substance": "SFMPEIQKNTIPTQMK [PF-512]", "values": [
      {"measurement": "Organism MIC", "setting": "[1]", "value": "S. pneumoniae, 50 μM"}
    ]},
    {"substance": "1T-243 (SENIARFAAAFENEQVVSYARWFRRSWRGSGSSSRF)", "values": [
      {"measurement": "Target(s)", "setting": "[5]; [7]", "value": "A. naeslundii, P. gingivalis, S. epidermidis,; also recorded: S. gordonii, S. mitis,; also recorded: S. mutans, S. oralis, S. salivarious,; also recorded: S. sanguinis"}
    ]}
  ]
}
